The supplement of paper PMC5908809

Key:
NKL (IL-2 2.5 ng/mL) [1] = assay: drug sensitivity score (DSS) (DSS units); higher = more sensitive; extreme values may be limits of the assay; conditions: 72 h
[2] = system: normal primary NK cells, pool 2 (3 donors) (IL-2 2.5 ng/mL); assay: as above; conditions: 72 h
NK-92 (IL-2 2.5 ng/mL) [3] = assay: as above; conditions: 72 h
DERL-7 (IL-2 2.5 ng/mL) [4] = assay: as above; conditions: 72 h
[5] = system: normal primary NK cells, pool 1 (3 donors), resting (IL-2 0 ng/mL); assay: as above; conditions: 72 h
[6] = system: normal primary NK cells, pool 1 (3 donors) (IL-2 2.5 ng/mL); assay: as above; conditions: 72 h
YT (IL-2 2.5 ng/mL) [7] = assay: as above; conditions: 72 h
NK-YS (IL-2 2.5 ng/mL) [8] = assay: as above; conditions: 72 h
SNK-6 (IL-2 2.5 ng/mL) [9] = assay: as above; conditions: 72 h
IMC-1 (IL-2 20 ng/mL) [10] = assay: as above; conditions: 72 h
KAI3 (IL-2 2.5 ng/mL) [11] = assay: as above; conditions: 72 h
KHYG-1 (IL-2 2.5 ng/mL) [12] = assay: as above; conditions: 72 h
[13] = system: normal primary NK cells, pool 3 (3 donors) (IL-2 2.5 ng/mL); assay: as above; conditions: 72 h
[14] = system: normal NK cells expanded with K562-aAPC; assay: as above; conditions: 72 h; IL-2 2.5 ng/mL
Protocol: (§1)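 Drug sensitivity and resistance testing on K562-aAPC-expanded normal NK cells: 5 concentrations (10-fold steps over a 10,000-fold range), 72 h at 37 °C, viability by CellTiter-Glo normalised to DMSO and benzethonium chloride controls; DSS from the fitted curve.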

NKL (IL-2 2.5 ng/mL) [15] = assay: percent inhibition of viability; higher = more inhibition; conditions: 72 h
[16] = system: normal primary NK cells, pool 2 (3 donors) (IL-2 2.5 ng/mL); assay: as above; conditions: 72 h
NK-92 (IL-2 2.5 ng/mL) [17] = assay: as above; conditions: 72 h
DERL-7 (IL-2 2.5 ng/mL) [18] = assay: as above; conditions: 72 h
[19] = system: normal primary NK cells, pool 1 (3 donors), resting (IL-2 0 ng/mL); assay: as above; conditions: 72 h
[20] = system: normal primary NK cells, pool 1 (3 donors) (IL-2 2.5 ng/mL); assay: as above; conditions: 72 h
YT (IL-2 2.5 ng/mL) [21] = assay: as above; conditions: 72 h
NK-YS (IL-2 2.5 ng/mL) [22] = assay: as above; conditions: 72 h
SNK-6 (IL-2 2.5 ng/mL) [23] = assay: as above; conditions: 72 h
IMC-1 (IL-2 20 ng/mL) [24] = assay: as above; conditions: 72 h
KAI3 (IL-2 2.5 ng/mL) [25] = assay: as above; conditions: 72 h
KHYG-1 (IL-2 2.5 ng/mL) [26] = assay: as above; conditions: 72 h
[27] = system: normal primary NK cells, pool 3 (3 donors) (IL-2 2.5 ng/mL); assay: as above; conditions: 72 h
[28] = system: normal NK cells expanded with K562-aAPC; assay: as above; conditions: 72 h, IL-2 2.5 ng/mL
Protocol: as §1

Cc1ccc(Nc2nccc(N(C)c3ccc4c(C)n(C)nc4c3)n2)cc1S(N)(=O)=O [Pazopanib] (max concentration tested 10000 nM)
Conditions	drug sensitivity score
DERL-7 (IL-2 2.5 ng/mL) [4]	0
IMC-1 (IL-2 20 ng/mL) [10]	4.34
KAI3 (IL-2 2.5 ng/mL) [11]	1.17
KHYG-1 (IL-2 2.5 ng/mL) [12]	5.18
NK-92 (IL-2 2.5 ng/mL) [3]	5.68
NK-YS (IL-2 2.5 ng/mL) [8]	1.11
NKL (IL-2 2.5 ng/mL) [1]	1.08
SNK-6 (IL-2 2.5 ng/mL) [9]	15
YT (IL-2 2.5 ng/mL) [7]	1.79
[2]	0
[5]	0
[6]	0
[13]	0
[14]	0.02

percent inhibition of viability [%]
Conditions	1 nM	10 nM	100 nM	1000 nM	10000 nM
DERL-7 (IL-2 2.5 ng/mL) [18]	-0.93	9.12	-0.5	-6.76	-10.4
IMC-1 (IL-2 20 ng/mL) [24]	-4.11	-5.35	2.08	16.6	44.2
KAI3 (IL-2 2.5 ng/mL) [25]	-4.79	-5.2	1.76	10.1	18.6
KHYG-1 (IL-2 2.5 ng/mL) [26]	-2.36	-0.84	4.74	27.1	36.6
NK-92 (IL-2 2.5 ng/mL) [17]	3.54	3.74	11.9	27.6	33.7
NK-YS (IL-2 2.5 ng/mL) [22]	-0.74	0.29	6.42	12.1	15.1
NKL (IL-2 2.5 ng/mL) [15]	-16.9	-17.8	-11.3	13.6	14.8
SNK-6 (IL-2 2.5 ng/mL) [23]	7.81	14.5	36.6	53.3	48.6
YT (IL-2 2.5 ng/mL) [21]	0.54	3.53	8.86	14.9	16.6
[16]	-17.7	-14.4	-13.5	-2.24	2.28
[19]	8.82	5.43	-6.14	-6.41	4.16
[20]	-5.94	2.19	-7.48	-8.52	-1.45
[27]	-10.1	-9.49	-4.17	-3.69	-2.21
[28]	3.24	-2.13	1.77	5.99	11.2

CN[C@@H](C)C(=O)N[C@H]1CN(C(=O)CC(C)C)CC[C@H]2CC[C@@H](C(=O)NC(c3ccccc3)c3ccccc3)N2C1=O [AT-406] (max concentration tested 10000 nM)
Conditions	drug sensitivity score
DERL-7 (IL-2 2.5 ng/mL) [4]	4.83
IMC-1 (IL-2 20 ng/mL) [10]	2.57
KAI3 (IL-2 2.5 ng/mL) [11]	5.12
KHYG-1 (IL-2 2.5 ng/mL) [12]	8.94
NK-92 (IL-2 2.5 ng/mL) [3]	4.65
NK-YS (IL-2 2.5 ng/mL) [8]	0
NKL (IL-2 2.5 ng/mL) [1]	3.99
SNK-6 (IL-2 2.5 ng/mL) [9]	0.19
YT (IL-2 2.5 ng/mL) [7]	3.66
[2]	6.28
[5]	7.24
[6]	7.33
[13]	5.48
[14]	5.72

percent inhibition of viability [%]
Conditions	1 nM	10 nM	100 nM	1000 nM	10000 nM
DERL-7 (IL-2 2.5 ng/mL) [18]	-6.8	8.09	10.6	21.5	39.4
IMC-1 (IL-2 20 ng/mL) [24]	-6.88	-6.17	4.87	17.4	12.2
KAI3 (IL-2 2.5 ng/mL) [25]	0.46	-9.34	-3.88	10.2	62.7
KHYG-1 (IL-2 2.5 ng/mL) [26]	-3.13	-12.2	-7.84	25.9	91.8
NK-92 (IL-2 2.5 ng/mL) [17]	-23.7	-16.2	3.03	13.5	49.2
NK-YS (IL-2 2.5 ng/mL) [22]	-5.59	-11.9	-8.91	-3.43	6.14
NKL (IL-2 2.5 ng/mL) [15]	2.76	0.59	0.42	22.9	30.9
SNK-6 (IL-2 2.5 ng/mL) [23]	-9.2	-11.9	-1.09	4.11	11.8
YT (IL-2 2.5 ng/mL) [21]	0.43	-2.82	-3.18	14.6	35.9
[16]	-16.6	-8.69	4.59	20.9	64.6
[19]	-17.3	-12.3	13.9	28.4	73.2
[20]	-7.15	1.28	15.2	27.8	74
[27]	-11.2	-10.2	2.26	13	61.8
[28]	-3.38	-2.67	4.16	25.7	52.9

CN[C@@H](C)C(=O)N[C@H](C(=O)N1CCC[C@H]1c1nc(C(=O)c2ccc(F)cc2)cs1)C1CCCCC1 [LCL161] (max concentration tested 25000 nM)
Conditions	drug sensitivity score
DERL-7 (IL-2 2.5 ng/mL) [4]	8.62
IMC-1 (IL-2 20 ng/mL) [10]	1.5
KAI3 (IL-2 2.5 ng/mL) [11]	7.35
KHYG-1 (IL-2 2.5 ng/mL) [12]	21.5
NK-92 (IL-2 2.5 ng/mL) [3]	9.07
NK-YS (IL-2 2.5 ng/mL) [8]	0.39
NKL (IL-2 2.5 ng/mL) [1]	3.42
SNK-6 (IL-2 2.5 ng/mL) [9]	1.99
YT (IL-2 2.5 ng/mL) [7]	4.58
[2]	13.6
[5]	10.4
[6]	14
[13]	12
[14]	10.4

percent inhibition of viability [%]
Conditions	2.5 nM	25 nM	250 nM	2500 nM	25000 nM
DERL-7 (IL-2 2.5 ng/mL) [18]	3.1	13	11.3	36.6	64.2
IMC-1 (IL-2 20 ng/mL) [24]	-0.09	4.35	9.97	0.82	31.3
KAI3 (IL-2 2.5 ng/mL) [25]	-3.88	-6.89	-0.05	26.9	67.2
KHYG-1 (IL-2 2.5 ng/mL) [26]	-3.69	-2.27	43.7	87.9	86.8
NK-92 (IL-2 2.5 ng/mL) [17]	-9.41	4.44	14.3	35.9	87.5
NK-YS (IL-2 2.5 ng/mL) [22]	-6.78	-9.82	-8.28	-8.9	20.8
NKL (IL-2 2.5 ng/mL) [15]	-0.58	12.2	1.43	5.86	46.8
SNK-6 (IL-2 2.5 ng/mL) [23]	9.58	4.06	-3.23	-1.7	42.3
YT (IL-2 2.5 ng/mL) [21]	4.24	0.05	5.12	15.8	49.9
[16]	-10.3	4.59	24.6	55.9	80.5
[19]	-36.7	-17.7	-2.19	43.8	88.3
[20]	-2.53	-6.03	25.8	58	91
[27]	-5.71	1.98	19.5	51.1	75.2
[28]	3.9	9.45	17.1	42	71.6
